Source: patent US20250369863A1, “METHOD FOR DETERMINING A STATUS OF A CO-CULTURE” (Universiteit Antwerpen, priority 2022, published 2025)

System: co-culture of patient-derived pancreatic tumor organoids (TCO) and cancer associated fibroblast (SCT)
Assay: co-culture of patient-derived pancreatic tumor organoids and cancer associated fibroblasts, stroma parameters from fluorescent images
Type: cell-based
Conditions: for stroma growth rate (normalized stromal growth rate): FIG. 5, FGF2 10 ng/ml; for stroma growth rate (normalized stromal growth rate) / stromal density of the micro-tumor / contractility: Nintedanib 0.5 μM; for stroma growth rate (normalized stromal growth rate) / stromal density of the micro-tumor: TGF-B 5 ng/ml; for stroma size (area): FIG. 6; for stroma size (area) / stromal size ratio: dynamic (over time) kinetic quantification; for stromal size ratio: FIG. 9; for stromal density of the micro-tumor: FIG. 10, static endpoint, compared to the control; for stromal density of the micro-tumor / contractility: FGF2 10 ng/mL; for contractility: FIGS. 7 and 8
Method: A co-culture was prepared of patient-derived pancreatic tumor organoids (TCO) and cancer associated fibroblast (SCT), wherein the TCO and the SCT were fluorescently labelled with the first and second fluorescent label respectively. First and second fluorescent images were recorded and the status of the sample was determined with and without contacting the sample with Nintedanib, TGFB or FGF2. Nintedanib is a known anti-fibrotic drug that inhibits fibroblast proliferation and motility. TGFB and FGF2 are growth factors that can stimulate fibroblast proliferation.

| Molecule | micro-tumor formation driven by activated fibroblasts | stroma growth rate (normalized stromal growth rate) | stroma size (area) | stromal size ratio | stromal size ratio (listed as Nintedanib) | stromal density of the micro-tumor | contractility | motility (shown by contractility, stromal size ratio and stromal density (FIGS. 7 to 10)) |
| --- | --- | --- | --- | --- | --- | --- | --- | --- |
| COC(=O)c1ccc2c(c1)NC(=O)/C2=C(\Nc1ccc(N(C)C(=O)CN2CCN(C)CC2)cc1)c1ccccc1 [nintedanib, Nintedanib] | inhibited | inhibited | inhibited | reduced | inhibitory effect | reduced | lack of contractility | inhibited |
| FGF2: growth factor that can stimulate fibroblast proliferation | – | stimulated the strongest | stimulated the strongest | – | – | only had marginal effects | have been contracted together | – |
| TGFB | – | – | – | – | – | only had marginal effects | – | – |
